Experimental findings from US6472391B2, “Nitrogen-containing heterocyclic compounds” (Millennium Pharmaceuticals, Inc., priority 1996, dated 2002) are described below.

One data set deals with T1, human β-PDGF receptor (Homo sapiens, UniProt P09619).
T1 construct: expressed in transfected cells; host or cells: Chinese hamster ovary cells (CHO)
Put plainly: Inhibitory effect on phosphorylation of PDGF receptor. Type of data set: cell-based. The following applies: CHO cells expressing human β-PDGF receptor. As for the experimental part: Test Example 1 Inhibitory Effect on Phosphorylation of PDGF Receptor
The test was carried out according to the method described in the literature [Dah-Shuhn et al., J. Biol. Chem., 266, 413-418 (1991)], using Chinese hamster ovary cells (CHO) wherein human β-PDGF receptor cDNA was introduced and expressed.

Data set [1] deals with Vascular smooth muscle cells. Kind of data set: Growth inhibition against smooth muscle cells (PDGF-BB stimulated, XTT method). Particulars: Sus scrofa, 72 h, pig aorta cells, PDGF-BB 20 ng/ml, 3 days, read-out: Growth Inhibitory effect against smooth muscle cells IC50. The data set is classed as cell-based. From the text:
Test Example 2 Growth Inhibition Against Smooth Muscle Cells
Vascular smooth muscle cells were isolated from a pig aorta by explantation and used for the test. The cells were put into wells of a 96-well plate (8000 cells/well) and cultured in Dulbecco's modified Eagle's medium (DMEM; Nissui Pharmaceutical Co., Ltd.) containing 10% fetal bovine serum (FBS; Hyclone) for 4 days. Then, the cells were further cultured in DMEM containing 0.1% FBS for 3 days, and were synchronized at the cell growth stationary phase.
To each well was added DMEM containing 0.1% FBS and a test sample at a varied concentration, and the cell growth was brought about by PDGF-BB (SIGMA, final concentration: 20 ng/ml). After culturing for 3 days, the cell growth was measured using the cell growth assay kit (Boehringer Mannheim) according to the XTT method [J. Immunol. Methods, 142, 257-265 (1991)], and the cell growth score was calculated by the following equation.
P100: Absorbance by XTT reagent when stimulated by PDGF-BB
P0: Absorbance by XTT reagent when not stimulated by PDGF-BB
M: Absorbance by XTT reagent after addition of a sample when stimulated by PDGF-BB
In general terms: Formazan colour is commonly taken as a measure of viable cells.

The subject of a further data set is Lewis rats. Kind of data set: Rat adjuvant arthritis model. Type of data set: in vivo. The following applies: 3 mg/ml suspension, 1 ml/100 g orally once a day; for inhibition at 3000 µg/mL (stock): Rattus norvegicus, po, 120 h. As for the experimental part: Test Example 4 Evaluation by the use of a Rat Adjuvant Arthritis Model
Killed cells of Mycobacterium butyricum (Difco Laboratories Inc.) were disrupted in agate mortar and suspended in liquid paraffin to the final concentration of 6.6 mg/ml, followed by sterilization with high pressure steam. Then, 100 μl of the suspension was intradermaly injected into the right hind foot pad of each animal of groups of female 8-weeks-old Lewis rats (Charles River Japan) (6 animals/group) to induce adjuvant arthritis. A test compound was suspended in a 0.5% solution of methylcellulose to the final concentration of 3 mg/ml, and from just before the induction of arthritis, the suspension was orally administered in an amount of 1 ml/100 g of the body weight once a day, 5 days a week. To a control group was administered a 0.5% solution of methylcellulose. A normal group was given no adjuvant treatment or test compound administration. The administration of the test compound was continued till the 18th day after the adjuvant treatment. On the 17th day, the number of leukocytes in peripheral blood was counted, and on the 18th day, all the blood was collected, followed by dissection. The change in body weight with the passage of time, the change of edema in hind paw with the passage of time, the weight of spleen and thymus, the number of leukocytes in peripheral blood, the hydroxyproline content of urine, the glucosaminoglycan content of urine, the SH concentration in serum, the concentration of nitrogen monoxide in serum and the concentration of mucoprotein in serum were measured and evaluated. The volume of both hind paws was measured using a rat's hind foot edema measurement device (TK-101, Unicom). The number of leukocytes in peripheral blood was counted using an automatic multichannel blood cell counter (Sysmex K-2000, Toa Iyo Denshi Co., Ltd.). The hydroxyproline content of urine was measured according to the method described in Ikeda, et al., Annual Report of Tokyo Metropolitan Research Laboratories P. H., 36, 277 (1985), and the glucosaminoglycan content was measured according to the method described in Moriyama, et al., Hinyo Kiyo, 40, 565 (1994) and Klompmakers, et al., Analytical Biochemistry, 153, 80 (1986). […] The concentration of mucoprotein was measured using Aspro GP Kit (Otsuka Pharmaceutical Co., Ltd.). The percentage of inhibition for each indication was calculated according to the following equation.
% Inhibition={(Control group−Compound-administered group)/(Control group−Normal group)}×100

Each structure is given as a SMILES string. Like-named read-outs stand apart in the source and are kept apart here.

T1 sequence (P09619 33-1106): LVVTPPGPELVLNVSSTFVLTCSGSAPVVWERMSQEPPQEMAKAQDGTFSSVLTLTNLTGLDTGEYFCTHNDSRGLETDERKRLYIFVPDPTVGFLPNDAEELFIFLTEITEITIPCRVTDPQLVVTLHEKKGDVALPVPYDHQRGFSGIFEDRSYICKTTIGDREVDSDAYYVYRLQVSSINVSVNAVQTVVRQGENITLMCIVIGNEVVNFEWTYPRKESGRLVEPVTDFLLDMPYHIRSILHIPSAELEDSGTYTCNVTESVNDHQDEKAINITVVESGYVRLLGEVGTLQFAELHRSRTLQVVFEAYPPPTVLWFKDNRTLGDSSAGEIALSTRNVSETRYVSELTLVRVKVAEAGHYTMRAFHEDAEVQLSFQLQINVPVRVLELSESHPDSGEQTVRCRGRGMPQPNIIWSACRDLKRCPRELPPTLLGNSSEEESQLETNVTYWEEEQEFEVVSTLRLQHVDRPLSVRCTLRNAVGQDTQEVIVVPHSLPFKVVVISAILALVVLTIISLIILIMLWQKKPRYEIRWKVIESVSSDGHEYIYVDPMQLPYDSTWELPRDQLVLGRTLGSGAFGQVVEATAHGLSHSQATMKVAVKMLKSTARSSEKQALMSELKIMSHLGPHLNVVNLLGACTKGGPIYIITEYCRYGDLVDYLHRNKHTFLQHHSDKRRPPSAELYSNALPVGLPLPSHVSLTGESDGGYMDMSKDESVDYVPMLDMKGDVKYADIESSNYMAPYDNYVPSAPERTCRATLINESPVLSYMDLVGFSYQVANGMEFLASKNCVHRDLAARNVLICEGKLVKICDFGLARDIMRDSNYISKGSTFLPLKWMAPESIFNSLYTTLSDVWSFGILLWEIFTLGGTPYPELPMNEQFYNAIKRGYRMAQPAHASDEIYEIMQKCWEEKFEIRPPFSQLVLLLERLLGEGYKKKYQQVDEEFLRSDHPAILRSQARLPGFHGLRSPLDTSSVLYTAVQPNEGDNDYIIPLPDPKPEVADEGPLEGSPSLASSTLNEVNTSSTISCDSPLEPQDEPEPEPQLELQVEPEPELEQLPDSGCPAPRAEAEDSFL

Turning to `COc1cc2ncnc(N3CCN(C(=S)Nc4ccccc4[N+](=O)[O-])CC3)c2cc1OC` [Compound 78, 4-(6,7-Dimethoxy-4-quinazolinyl)-N-(2-nitrophenyl)-1-piperazinethiocarboxamide], the melting point lay in the range of 177 to 178 °C. On human β-PDGF receptor, this molecule had a half-maximal inhibitory concentration (IC50) of 580 nM. Also, the IC50 in data set [1] stood at 740 nM.

On to `COc1cc2ncnc(N3CCN(C(=O)Nc4ccc(C#N)cc4)CC3)c2cc1OC` [Compound 239, N-(4-Cyanophenyl)-4-(6,7-dimethoxy-4-quinazolinyl)-1-piperazinecarboxamide], for which the melting point is 274 to 275 °C. In the data set with Lewis rats (5 days a week, normal 1.12 ± 0.03, sensitized control 1.84 ± 0.18), the “Volume of left hind foot” value worked out at 1.52 ± 0.16 mL. For the same molecule, in the data set on Lewis rats (normal 21.4 ± 0.3, sensitized control 53.8 ± 3.8, P < 0.05 vs control), the Weight of spleen is on record as 40.4 ± 2.5 mg/10 g of body weight. Also, in the data set with Lewis rats (normal 191 ± 5, sensitized control 146 ± 4, P < 0.05 vs control), the Body weight is 159 ± 2 g. For the same molecule, the inhibition at 3000 µg/mL (stock) in the data set on Lewis rats (5 days a week, read-out: Inhibition rate (NO concentration)) amounted to 42%. Besides, the inhibition at 3000 µg/mL (stock) in the data set on Lewis rats (5 days a week, read-out: Inhibition rate (body weight)) came out at 29%. In addition, the inhibition at 3000 µg/mL (stock) in the data set with Lewis rats (5 days a week, read-out: Inhibition rate (volume of left hind foot)) is 44%. The inhibition at 3000 µg/mL (stock) with Lewis rats (5 days a week, read-out: Inhibition rate (weight of spleen)) was determined as 41%. In addition, the NO concentration with Lewis rats (serum, normal 11.1 ± 1.0, sensitized control 56.6 ± 7.0) stood at 37.6 ± 4.0 µM.

Regarding `COc1cc2ncnc(N3CCN(C(=O)Nc4ccc(C(C)C)cc4)CC3)c2cc1OC` [Compound 19, 4-(6,7-Dimethoxy-4-quinazolinyl)-N-(4-isopropylphenyl)-1-piperazinecarboxamide], the melting point fell in the range of 252 to 254 °C. Also, the IC50 in data set [1] stood at 180 nM.

`COc1cc2ncnc(N3CCN(C(=S)Nc4cccc(C(C)=O)c4)CC3)c2cc1OC` [Compound 241, N-(3-Acetylphenyl)-4-(6,7-dimethoxy-4-quinazolinyl)-1-piperazinethiocarboxamide] registered a melting point of 192 to 193 °C. Also, inhibition against human β-PDGF receptor was half-maximal at 400 nM (IC50).

`COc1cc2ncnc(N3CCN(C(=O)Nc4ccc(Oc5ccccc5)cc4)CC3)c2cc1OC` [Compound 60, 4-(6,7-Dimethoxy-4-quinazolinyl)-N-(4-phenoxyphenyl)-1-piperazinecarboxamide]: the IC50 in data set [1] amounted to 30 nM.

In turn, `COc1cc2ncnc(N3CCN(C(=O)Nc4ccc([N+](=O)[O-])cc4)CC3)c2cc1OC` [Compound 77, 4-(6,7-dimethoxy-4-quinazolinyl)-N-(4-nitrophenyl)-1-piperazinecarboxamide] showed a melting point of 272 to 274 °C. Also, in data set [1], the half-maximal inhibitory concentration (IC50) was determined as 100 nM.

`COc1cc2ncnc(N3CCN(C(=S)Nc4ccc(N(C)C)cc4)CC3)c2cc1OC` [Compound 71, 4-(6,7-Dimethoxy-4-quinazolinyl)-N-(4-dimethylaminophenyl)-1-piperazinethiocarboxamide] registered a melting point of 226 to 227 °C. The molecule also had a 50% inhibitory concentration (IC50) on human β-PDGF receptor of 940 nM.

Regarding `COc1cc2ncnc(N3CCN(C(=S)Nc4cccc([N+](=O)[O-])c4)CC3)c2cc1OC` [Compound 79, 4-(6,7-Dimethoxy-4-quinazolinyl)-N-(3-nitrophenyl)-1-piperazinethiocarboxamide], the melting point fell in the range of 140 to 143 °C. For the same molecule, at human β-PDGF receptor, the IC50 was found to be 120 nM. For the same molecule, the half-maximal inhibitory concentration (IC50) in data set [1] worked out at 140 nM.

`COc1cc2ncnc(N3CCN(C(=S)NCc4cccc(Cl)c4)CC3)c2cc1OC` [Compound 177, N-(3-Chlorobenzyl)-4-(6,7-dimethoxy-4-quinazolinyl)-1-piperazinethiocarboxamide] showed a melting point of 117 to 119 °C. On human β-PDGF receptor, this molecule yielded an IC50 of 770 nM.

For `COc1cc2ncnc(N3CCN(C(=O)NCc4ccc(OC(F)(F)F)cc4)CC3)c2cc1OC` [Compound 203, 4-(6,7-Dimethoxy-4-quinazolinyl)-N-(4-trifluoromethoxybenzyl)-1-piperazinecarboxamide], the melting point lay within 176 to 177 °C. Moreover, the IC50 against human β-PDGF receptor was 1390 nM.

The molecule `COc1cc2ncnc(N3CCN(C(=S)NCCc4ccc(Cl)cc4)CC3)c2cc1OC` [Compound 180, N-[2-(4-Chlorophenyl)ethyl]-4-(6,7-dimethoxy-4-quinazolinyl)-1-piperazinethiocarboxamide] registered a melting point of 106 to 109 °C. On human β-PDGF receptor, this molecule registered a half-maximal inhibitory concentration (IC50) of 1000 nM.

Consider `CCOc1cc2ncnc(N3CCN(C(=O)Nc4ccc([N+](=O)[O-])cc4)CC3)c2cc1OCC` [Compound 105, 4-(6,7-Diethoxy-4-quinazolinyl)-N-(4-nitrophenyl)-1-piperazinecarboxamide], for which the melting point fell in the range of 120 to 121 °C. Besides, the IC50 against human β-PDGF receptor is 440 nM.

Molecule `O=C(Nc1ccc(Oc2ccccc2)cc1)N1CCN(c2ncnc3ccc(F)cc23)CC1` [Compound 297, 4-(6-Fluoro-4-quinazolinyl)-N-(4-phenoxyphenyl)-1-piperazinecarboxamide] registered a melting point of 186 to 187 °C. On human β-PDGF receptor, this molecule showed a half-inhibitory concentration (IC50) of 330 nM.

`COc1cc2ncnc(N3CCN(C(=O)NCc4ccc(Cl)cc4)CC3)c2cc1OC` [Compound 178, N-(4-Chlorobenzyl)-4-(6,7-dimethoxy-4-quinazolinyl)-1-piperazinecarboxamide] came in with a melting point of 203 to 204 °C. This molecule displayed an IC50 against human β-PDGF receptor of 410 nM.

`COc1cc2ncnc(N3CCN(C(=S)Nc4ccc(S(=O)(=O)N5CCCCC5)cc4)CC3)c2cc1OC` [Compound 254, 4-(6,7-Dimethoxy-4-quinazolinyl)-N-(4-piperidinosulfonylphenyl)-1-piperazinethiocarboxamide] had a melting point of 149 to 150 °C. On human β-PDGF receptor, this molecule returned an IC50 of 460 nM.

As for `COc1cc2ncnc(N3CCN(C(=O)Nc4ccc(Br)cc4)CC3)c2cc1OC` [Compound 45, N-(4-bromophenyl)-4-(6,7-dimethoxy-4-quinazolinyl)-1-piperazinecarboxamide], the melting point was 223 to 228 °C. This molecule also had an IC50 on human β-PDGF receptor of 160 nM. The IC50 in data set [1] turned out to be 80 nM.

Usually melting point stands for the temperature of the solid-liquid transition. A word on the IC50: it is the concentration at which inhibition is half-maximal.
